Measured values reported in ChEMBL document CHEMBL1131630, “(Z,Z)-2,7-Bis(4-amidinobenzylidene)cycloheptan-1-one: identification of a highly active inhibitor of blood coagulation factor Xa” (J Med Chem, 1998).

Legend:
Serine protease 1 = target: T1, Serine protease 1 (Bos taurus, UniProt P00760); test: Compound (isomer) was tested in the absence of light for inhibitory activity against trypsin.
T1 sequence (P00760 whole entry): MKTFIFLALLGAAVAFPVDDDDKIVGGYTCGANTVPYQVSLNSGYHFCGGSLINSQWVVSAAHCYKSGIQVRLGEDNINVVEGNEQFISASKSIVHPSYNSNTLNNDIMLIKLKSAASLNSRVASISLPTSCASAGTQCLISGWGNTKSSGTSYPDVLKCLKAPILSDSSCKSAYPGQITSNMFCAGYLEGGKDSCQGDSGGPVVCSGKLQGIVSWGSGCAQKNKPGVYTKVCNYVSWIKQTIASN

Coagulation factor X = Coagulation factor X (Homo sapiens, UniProt P00742); test: Compound (isomer) was tested in the absence of light for inhibitory activity against Human Coagulation factor X
Chain of Coagulation factor X (P00742 41-179 limits assumed): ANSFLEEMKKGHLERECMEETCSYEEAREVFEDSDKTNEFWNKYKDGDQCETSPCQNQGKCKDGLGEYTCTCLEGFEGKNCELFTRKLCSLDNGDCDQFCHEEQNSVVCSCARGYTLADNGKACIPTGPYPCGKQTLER
Chain of Coagulation factor X (P00742 235-488 limits assumed): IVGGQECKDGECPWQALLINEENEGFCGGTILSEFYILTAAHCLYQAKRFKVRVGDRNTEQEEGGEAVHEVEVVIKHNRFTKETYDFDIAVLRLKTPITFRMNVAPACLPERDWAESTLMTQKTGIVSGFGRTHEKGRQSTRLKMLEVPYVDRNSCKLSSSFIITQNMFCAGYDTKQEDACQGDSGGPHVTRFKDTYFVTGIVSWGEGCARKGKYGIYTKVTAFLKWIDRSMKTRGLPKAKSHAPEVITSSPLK

Prothrombin = Prothrombin (Homo sapiens, UniProt P00734); test: Compound (isomer) was tested in the absence of light for inhibitory activity against thrombin.

Structure (SMILES)	Ki (Serine protease 1) [nM]	Ki (Coagulation factor X) [nM]	Ki (Prothrombin) [nM]
N=C(N)c1ccc(/C=C2\CCCC/C(=C\c3ccc(C(=N)N)cc3)C2=O)cc1	280	17000	–
N=C(N)c1ccc(/C=C2/CCCC/C(=C\c3ccc(C(=N)N)cc3)C2=O)cc1	29	–	130
